The structures appear in SMILES notation.

Sequence of Nav 1.5 (Q14524 whole entry): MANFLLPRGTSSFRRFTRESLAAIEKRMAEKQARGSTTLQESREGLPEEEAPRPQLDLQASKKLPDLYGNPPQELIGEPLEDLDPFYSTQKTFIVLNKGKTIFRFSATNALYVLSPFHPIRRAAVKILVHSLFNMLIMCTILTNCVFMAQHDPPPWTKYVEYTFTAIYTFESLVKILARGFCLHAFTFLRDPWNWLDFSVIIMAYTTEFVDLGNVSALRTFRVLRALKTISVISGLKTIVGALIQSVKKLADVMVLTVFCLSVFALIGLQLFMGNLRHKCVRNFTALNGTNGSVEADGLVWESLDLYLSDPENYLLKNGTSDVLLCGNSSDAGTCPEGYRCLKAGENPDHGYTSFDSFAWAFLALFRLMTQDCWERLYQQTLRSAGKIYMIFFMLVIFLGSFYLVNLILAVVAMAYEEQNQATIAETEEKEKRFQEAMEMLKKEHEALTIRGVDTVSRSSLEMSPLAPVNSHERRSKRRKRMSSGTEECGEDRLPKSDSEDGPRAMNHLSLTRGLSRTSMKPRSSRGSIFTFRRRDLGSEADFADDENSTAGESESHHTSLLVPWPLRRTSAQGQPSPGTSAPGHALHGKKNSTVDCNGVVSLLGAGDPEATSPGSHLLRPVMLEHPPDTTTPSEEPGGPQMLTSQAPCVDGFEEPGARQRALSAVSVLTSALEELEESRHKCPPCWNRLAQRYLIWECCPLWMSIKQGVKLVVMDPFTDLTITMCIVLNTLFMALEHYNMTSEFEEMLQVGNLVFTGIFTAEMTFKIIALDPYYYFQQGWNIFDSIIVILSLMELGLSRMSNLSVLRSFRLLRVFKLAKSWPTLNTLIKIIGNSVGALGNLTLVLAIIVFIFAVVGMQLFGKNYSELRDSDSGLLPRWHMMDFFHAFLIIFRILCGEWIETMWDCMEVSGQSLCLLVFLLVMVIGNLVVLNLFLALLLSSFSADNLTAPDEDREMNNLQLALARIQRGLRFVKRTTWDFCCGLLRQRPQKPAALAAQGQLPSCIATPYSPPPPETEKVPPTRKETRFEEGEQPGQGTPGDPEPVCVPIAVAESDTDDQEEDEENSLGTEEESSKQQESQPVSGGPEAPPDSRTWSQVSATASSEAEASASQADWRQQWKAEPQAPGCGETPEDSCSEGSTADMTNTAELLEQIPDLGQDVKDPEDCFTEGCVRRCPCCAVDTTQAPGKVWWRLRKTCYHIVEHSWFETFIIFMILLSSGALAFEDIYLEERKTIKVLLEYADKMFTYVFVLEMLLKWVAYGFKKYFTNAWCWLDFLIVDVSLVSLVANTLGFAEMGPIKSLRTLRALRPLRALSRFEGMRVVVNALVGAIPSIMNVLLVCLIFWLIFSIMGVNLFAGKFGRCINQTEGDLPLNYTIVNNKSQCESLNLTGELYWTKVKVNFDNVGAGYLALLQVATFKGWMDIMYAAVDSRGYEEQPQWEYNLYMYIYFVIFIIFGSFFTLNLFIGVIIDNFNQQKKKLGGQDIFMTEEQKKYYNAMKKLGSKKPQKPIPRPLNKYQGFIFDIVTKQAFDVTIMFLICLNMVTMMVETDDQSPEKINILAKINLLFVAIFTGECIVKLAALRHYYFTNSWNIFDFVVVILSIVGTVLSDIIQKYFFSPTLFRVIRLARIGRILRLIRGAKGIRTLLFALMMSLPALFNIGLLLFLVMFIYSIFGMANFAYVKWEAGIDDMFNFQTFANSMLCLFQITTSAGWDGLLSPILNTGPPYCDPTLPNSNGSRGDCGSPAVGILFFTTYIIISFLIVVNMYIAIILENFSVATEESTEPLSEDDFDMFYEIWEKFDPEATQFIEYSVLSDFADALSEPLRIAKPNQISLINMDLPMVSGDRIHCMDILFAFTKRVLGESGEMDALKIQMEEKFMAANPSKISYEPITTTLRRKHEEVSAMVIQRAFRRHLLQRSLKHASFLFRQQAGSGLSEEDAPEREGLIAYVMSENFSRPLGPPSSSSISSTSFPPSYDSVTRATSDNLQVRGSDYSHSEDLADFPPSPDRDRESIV
T1 sequence (Q15858 whole entry): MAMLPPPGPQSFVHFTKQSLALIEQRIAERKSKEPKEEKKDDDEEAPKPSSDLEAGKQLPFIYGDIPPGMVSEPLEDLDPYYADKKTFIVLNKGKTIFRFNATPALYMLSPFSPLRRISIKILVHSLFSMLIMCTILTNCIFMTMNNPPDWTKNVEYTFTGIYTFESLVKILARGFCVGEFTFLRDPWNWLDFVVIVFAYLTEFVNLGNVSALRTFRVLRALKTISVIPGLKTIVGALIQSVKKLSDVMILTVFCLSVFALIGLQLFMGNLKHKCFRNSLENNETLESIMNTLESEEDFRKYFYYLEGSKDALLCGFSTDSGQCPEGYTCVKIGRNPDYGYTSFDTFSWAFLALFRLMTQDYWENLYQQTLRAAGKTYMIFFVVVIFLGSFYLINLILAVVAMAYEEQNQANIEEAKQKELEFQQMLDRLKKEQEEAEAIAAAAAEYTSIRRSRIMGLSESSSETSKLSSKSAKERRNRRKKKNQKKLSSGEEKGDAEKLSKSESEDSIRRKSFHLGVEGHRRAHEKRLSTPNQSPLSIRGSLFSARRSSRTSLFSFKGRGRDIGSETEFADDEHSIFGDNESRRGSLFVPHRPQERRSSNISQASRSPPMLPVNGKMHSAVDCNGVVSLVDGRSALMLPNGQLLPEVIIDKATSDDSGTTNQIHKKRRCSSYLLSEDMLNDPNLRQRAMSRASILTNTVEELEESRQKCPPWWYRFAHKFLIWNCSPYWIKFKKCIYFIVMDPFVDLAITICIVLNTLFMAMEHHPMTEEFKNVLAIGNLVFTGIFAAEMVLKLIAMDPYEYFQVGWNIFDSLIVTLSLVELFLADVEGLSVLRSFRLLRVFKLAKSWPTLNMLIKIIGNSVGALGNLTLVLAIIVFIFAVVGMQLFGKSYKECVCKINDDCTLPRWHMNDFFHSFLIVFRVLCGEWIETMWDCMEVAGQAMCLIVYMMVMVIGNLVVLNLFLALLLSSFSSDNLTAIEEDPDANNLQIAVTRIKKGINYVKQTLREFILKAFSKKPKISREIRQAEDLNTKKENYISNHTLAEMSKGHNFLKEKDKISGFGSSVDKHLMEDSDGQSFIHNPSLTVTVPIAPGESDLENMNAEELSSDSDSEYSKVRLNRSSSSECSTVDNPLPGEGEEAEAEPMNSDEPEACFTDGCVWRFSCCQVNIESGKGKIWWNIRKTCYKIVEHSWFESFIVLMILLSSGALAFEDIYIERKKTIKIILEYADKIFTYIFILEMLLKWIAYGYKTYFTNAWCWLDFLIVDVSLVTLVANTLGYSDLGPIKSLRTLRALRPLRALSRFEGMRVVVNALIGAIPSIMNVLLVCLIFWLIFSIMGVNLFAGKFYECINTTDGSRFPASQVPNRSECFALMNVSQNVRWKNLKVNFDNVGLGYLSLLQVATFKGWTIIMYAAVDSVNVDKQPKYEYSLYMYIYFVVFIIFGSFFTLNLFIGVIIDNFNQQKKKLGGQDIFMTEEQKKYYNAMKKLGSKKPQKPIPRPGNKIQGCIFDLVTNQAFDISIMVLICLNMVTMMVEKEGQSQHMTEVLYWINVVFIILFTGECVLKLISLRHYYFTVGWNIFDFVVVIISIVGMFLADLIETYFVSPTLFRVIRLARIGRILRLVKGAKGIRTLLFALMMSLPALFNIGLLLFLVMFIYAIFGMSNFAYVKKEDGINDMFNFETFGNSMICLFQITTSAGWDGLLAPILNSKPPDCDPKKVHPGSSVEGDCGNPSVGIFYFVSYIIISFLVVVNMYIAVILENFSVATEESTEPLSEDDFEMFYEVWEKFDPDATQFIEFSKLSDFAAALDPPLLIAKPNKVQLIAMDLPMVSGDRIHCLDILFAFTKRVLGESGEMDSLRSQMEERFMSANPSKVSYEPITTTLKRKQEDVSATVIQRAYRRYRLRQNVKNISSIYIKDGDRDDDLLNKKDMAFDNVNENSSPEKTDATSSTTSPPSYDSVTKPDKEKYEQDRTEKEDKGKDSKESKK

The first series addresses T1, Nav 1.7 (Homo sapiens (Human), UniProt Q15858). The series is described as follows: Nav 1.7 in vitro PX assay, PatchXpress whole cell voltage clamp. In kind it is cell-based. The settings on record: HEK293; values marked *; 4.9 μM; HEK 293 cells stably transfected with human Nav1.7; read-out: Nav 1.7 PX percent inhibition at 4.9 μM. The procedure: Nav 1.7 In Vitro PX Assay
HEK 293 cells stably transfected with human Nav1.7 were recorded in whole cell voltage clamp mode with the PatchXpress automated electrophysiology system (Molecular Devices, LLC, Sunnyvale, Calif.). Compound effects were measured on a partially inactivated state of the sodium channel. Cells were clamped to a holding potential yielding 20 to 50% inactivation. To elicit sodium current, channels were activated by pulsing to −10 mV for 20 msec. This voltage protocol was repeated at a rate of 0.1 Hz throughout the experiment. A single concentration of test compound was applied to cells for a duration of 3 minutes. Peak sodium current was measured at the end of the compound addition period to determine percent inhibition. Three to five cells were tested per concentration, and IC50 curves were fitted to percent inhibition as a function of concentration.
On to `CC(=O)N1CCN(c2ccc(C(F)(F)F)cc2Cl)c2ccc(S(=O)(=O)Nc3ncns3)cc21` [Example 20, 4-Acetyl-1-(2-Chloro-4-(Trifluoromethyl)Phenyl)-N-(1,2,4-Thiadiazol-5-Yl)-1,2,3,4-Tetrahydroquinoxaline-6-Sulfonamide], for which the inhibition (in general, the share of the control response that was lost under treatment) at 4.9 µM was 33.2%.

The series is the same for the next values; noted with them: HEK 293 cells stably transfected with human Nav1.7; partially inactivated state (20 to 50% inactivation).
Take `CC(C)(C#N)Oc1ccccc1N1CCOc2cc(S(=O)(=O)Nc3nccs3)ccc21` [Example 261, 4-(2-((2-cyanopropan-2-yl)oxy)phenyl)-N-(thiazol-2-yl)-3,4-dihydro-2H-benzo[b][1,4]oxazine-7-sulfonamide]: half-maximal inhibition (IC50) required 3.6 µM. Consider `O=C1COc2cc(S(=O)(=O)Nc3nccs3)ccc2N1c1ccc(C(F)(F)F)cc1CO` [Example 262, 4-(2-(hydroxymethyl)-4-(trifluoromethyl)phenyl)-3-oxo-N-(thiazol-2-yl)-3,4-dihydro-2H-benzo[b][1,4]oxazine-7-sulfonamide], for which half-maximal inhibition (IC50) was put at 3.35 µM. In the case of `COc1cc(C(F)(F)F)ccc1N1C(=O)[C@H](C)Oc2cc(S(=O)(=O)Nc3nccs3)ccc21` [Example 264, (S)-4-(2-methoxy-4-(trifluoromethyl)phenyl)-2-methyl-3-oxo-N-(thiazol-2-yl)-3,4-dihydro-2H-benzo[b][1,4]oxazine-7-sulfonamide], the half-inhibitory concentration (IC50) (commonly the point on the concentration scale where inhibition reaches its midpoint) was 0.596 µM. As to `COc1cc(C(F)(F)F)ccc1N1C(=O)[C@@H](C)Oc2cc(S(=O)(=O)Nc3nccs3)ccc21` [Example 265, (R)-4-(2-Methoxy-4-(Trifluoromethyl)Phenyl)-2-Methyl-3-Oxo-N-(Thiazol-2-Yl)-3,4-Dihydro-2H-Benzo[B][1,4]Oxazine-7-Sulfonamide], it took 0.728 µM to reach half-maximal inhibition (IC50). Take `COc1cc(C(F)(F)F)ccc1N1C(=O)C(C)(C)Oc2cc(S(=O)(=O)Nc3nccs3)ccc21` [Example 266, 4-(2-Methoxy-4-(Trifluoromethyl)Phenyl)-2,2-Dimethyl-3-Oxo-N-(Thiazol-2-Yl)-3,4-Dihydro-2H-Benzo[B][1,4]Oxazine-7-Sulfonamide]: half-maximal inhibition (IC50) required 5.62 µM.

The next series concerns the target T1, Nav 1.7. The series is described as follows: Nav 1.7 in vitro assay, IonWorks Quattro (IWQ) population patch-clamp. The settings on record: HEK 293 cells stably transfected with Nav 1.7; 26th pulse to -20 mV. In kind it is cell-based. The protocol: (§1) Nav 1.7 and Nav 1.5 In Vitro Assays
(§2) HEK 293 cells stably transfected with either Nav 1.7 or with Nav 1.5 were recorded in population patch-clamp mode with the IonWorks® Quattro automated electrophysiology system in accordance with the manufacturer's specifications (Molecular Devices, LLC, Sunnyvale, Calif.). Sodium channel currents were measured in response to a train of depolarizations that induced successively greater inactivation.
(§3) Cells were held at −110 mV for three seconds (Nav 1.7) or half a second (Nav 1.5) from a holding voltage of −15 mV, then put through a series of 26 pulses of 150 msec duration to −20 mV at a frequency of 5 Hz. Cells were then left unclamped for a period of 3 to 8 minutes while a single concentration of test compound was added. Cells were then reclamped and put through the same voltage protocol. Current at the end of the 26th pulse to −20 mV was subtracted from the peak current evoked by the 26th pulse to −20 mV to correct for leak current. Percent block was calculated for each concentration in duplicate, and IC50 curves were fitted to percent block as a function of concentration.
For orientation: In patch-clamp work, channel activity is measured electrically.
`CC(=O)N1CCN(c2ccc(C(F)(F)F)cc2Cl)c2ccc(S(=O)(=O)Nc3ncns3)cc21` [Example 20, 4-Acetyl-1-(2-Chloro-4-(Trifluoromethyl)Phenyl)-N-(1,2,4-Thiadiazol-5-Yl)-1,2,3,4-Tetrahydroquinoxaline-6-Sulfonamide] had a 50% inhibitory concentration (IC50) of 7.6 µM.

A further series has as its target Nav 1.5 (Homo sapiens (Human), UniProt Q14524). The series is described as follows: Nav 1.5 in vitro assay, IonWorks Quattro (IWQ) population patch-clamp. The format is cell-based. The settings on record: HEK 293 cells stably transfected with Nav 1.5; 26th pulse to -20 mV. The procedure:
as §1, §2, §3
Compound `CC(C)(C)OC(=O)N1CC=C(c2cc(C(F)(F)F)ccc2N2CCOc3cc(S(=O)(=O)Nc4ncns4)ccc32)CC1` [Example 6, Tert-Butyl 4-(2-(7-(N-(1,2,4-Thiadiazol-5-Yl)Sulfamoyl)-2H-Benzo[B][1,4]Oxazin-4(3H)-Yl)-5-(Trifluoromethyl)Phenyl)-5,6-Dihydropyridine-1(2H)-Carboxylate] gave a 50% inhibitory concentration (IC50) of 2.29 µM. Still for that read-out and setting: the result for `O=S(=O)(Nc1nccs1)c1ccc2c(c1)OCCN2c1ccc(C(F)(F)F)cc1C1=CCNCC1` [Example 38, 4-(2-(1,2,3,6-Tetrahydropyridin-4-Yl)-4-(Trifluoromethyl)Phenyl)-N-(Thiazol-2-Yl)-3,4-Dihydro-2H-Benzo[B][1,4]Oxazine-7-Sulfonamide 2,2,2-Trifluoroacetate] reads 0.254 µM; that for `CN1CC=C(c2cc(C(F)(F)F)ccc2N2CCOc3cc(S(=O)(=O)Nc4ccncn4)ccc32)CC1` [Example 51, 4-(2-(1-Methyl-1,2,3,6-Tetrahydropyridin-4-Yl)-4-(Trifluoromethyl)Phenyl)-N-(Pyrimidin-4-Yl)-3,4-Dihydro-2H-Benzo[B][1,4]Oxazine-7-Sulfonamide], above 10 µM; that for `O=S(=O)(Nc1nccs1)c1ccc2c(c1)OCCN2c1cccc2scnc12` [Example 72, 4-(Benzo[D]Thiazol-4-Yl)-N-(Thiazol-2-Yl)-3,4-Dihydro-2H-Benzo[B][1,4]Oxazine-7-Sulfonamide 2,2,2-Trifluoroacetate], above 10 µM. In turn, `COc1cccc(N2CCOc3cc(S(=O)(=O)Nc4nccs4)ccc32)c1` [Example 77, 4-(3-Methoxyphenyl)-N-(Thiazol-2-Yl)-3,4-Dihydro-2H-Benzo[B][1,4]Oxazine-7-Sulfonamide 2,2,2-Trifluoroacetate] gave a 50% inhibitory concentration (IC50) above 10 µM. Still for that read-out and setting: the figure for `Cc1ccc(N2CCOc3cc(S(=O)(=O)Nc4nccs4)ccc32)cc1F` [Example 82, 4-(3-Fluoro-4-Methylphenyl)-N-(Thiazol-2-Yl)-3,4-Dihydro-2H-Benzo[B][1,4]Oxazine-7-Sulfonamide 2,2,2-Trifluoroacetate] is above 10 µM; for `O=S(=O)(Nc1nccs1)c1ccc2c(c1)OCCN2c1cc(F)ccc1F` [Example 83, 4-(2,5-Difluorophenyl)-N-(Thiazol-2-Yl)-3,4-Dihydro-2H-Benzo[B][1,4]Oxazine-7-Sulfonamide 2,2,2-Trifluoroacetate] it is above 10 µM.

As for `O=S(=O)(Nc1nccs1)c1ccc2c(c1)OCCN2c1ncc(Cl)cc1Cl` [Example 121, 4-(3,5-Dichloropyridin-2-yl)-N-(thiazol-2-yl)-3,4-dihydro-2H-benzo[b][1,4]oxazine-7-sulfonamide], the IC50 is above 10 µM. `COc1ccc(N2CCOc3cc(S(=O)(=O)Nc4nccs4)ccc32)c(C#N)c1` [Example 153, 4-(2-Cyano-4-Methoxyphenyl)-N-(Thiazol-2-Yl)-3,4-Dihydro-2H-Benzo[B][1,4]Oxazine-7-Sulfonamide 2,2,2-Trifluoroacetate] came in with a half-maximal inhibitory concentration (IC50) above 10 µM. With `O=S(=O)(Nc1nccs1)c1ccc2c(c1)OCCN2c1ccc(-n2ccnc2)cc1` [Example 154, 4-(4-(1H-Imidazol-1-Yl)Phenyl)-N-(Thiazol-2-Yl)-3,4-Dihydro-2H-Benzo[B][1,4]Oxazine-7-Sulfonamide 2,2,2-Trifluoroacetate], the half-inhibitory concentration (IC50) is above 10 µM. The same measure, in the same setting: the result for `O=S(=O)(Nc1nccs1)c1ccc2c(c1)OCCN2c1ccccc1C(F)(F)F` [Example 157, N-(Thiazol-2-Yl)-4-(2-(Trifluoromethyl)Phenyl)-3,4-Dihydro-2H-Benzo[B][1,4]Oxazine-7-Sulfonamide 2,2,2-Trifluoroacetate] reads above 10 µM. On the same count and under the same terms, the result for `O=C1CCCc2ccc(N3CCOc4cc(S(=O)(=O)Nc5nccs5)ccc43)cc21` [Example 160, 4-(8-Oxo-5,6,7,8-Tetrahydronaphthalen-2-Yl)-N-(Thiazol-2-Yl)-3,4-Dihydro-2H-Benzo[B][1,4]Oxazine-7-Sulfonamide 2,2,2-Trifluoroacetate] reads above 10 µM. On the same count and under the same terms, the figure for `Cc1cc(N2CCOc3cc(S(=O)(=O)Nc4nccs4)ccc32)cc(C)c1N(C)C` [Example 161, 4-(4-(Dimethylamino)-3,5-Dimethylphenyl)-N-(Thiazol-2-Yl)-3,4-Dihydro-2H-Benzo[B][1,4]Oxazine-7-Sulfonamide 2,2,2-Trifluoroacetate] is 3.49 µM; for `CCOc1cccc(N2CCOc3cc(S(=O)(=O)Nc4nccs4)ccc32)c1` [Example 162, 4-(3-Ethoxyphenyl)-N-(Thiazol-2-Yl)-3,4-Dihydro-2H-Benzo[B][1,4]Oxazine-7-Sulfonamide 2,2,2-Trifluoroacetate] it is above 10 µM; for `Cc1ccc(N2CCOc3cc(S(=O)(=O)Nc4nccs4)ccc32)cc1Cl` [Example 163, 4-(3-Chloro-4-Methylphenyl)-N-(Thiazol-2-Yl)-3,4-Dihydro-2H-Benzo[B][1,4]Oxazine-7-Sulfonamide 2,2,2-Trifluoroacetate] it is 3.14 µM. `N#Cc1ccc(F)c(N2CCOc3cc(S(=O)(=O)Nc4nccs4)ccc32)c1` [Example 164, 4-(5-Cyano-2-Fluorophenyl)-N-(Thiazol-2-Yl)-3,4-Dihydro-2H-Benzo[B][1,4]Oxazine-7-Sulfonamide 2,2,2-Trifluoroacetate] registered a 50% inhibitory concentration (IC50) above 10 µM. For `Cc1c(Cl)cccc1N1CCOc2cc(S(=O)(=O)Nc3nccs3)ccc21` [Example 169, 4-(3-Chloro-2-Methylphenyl)-N-(Thiazol-2-Yl)-3,4-Dihydro-2H-Benzo[B][1,4]Oxazine-7-Sulfonamide 2,2,2-Trifluoroacetate], the IC50 was above 10 µM. `O=S(=O)(Nc1nccs1)c1ccc2c(c1)OCCN2c1cccc(Cl)c1Cl` [Example 171, 4-(2,3-Dichlorophenyl)-N-(Thiazol-2-Yl)-3,4-Dihydro-2H-Benzo[B][1,4]Oxazine-7-Sulfonamide 2,2,2-Trifluoroacetate] yielded a concentration for half-maximal inhibition (IC50) of 6.44 µM. `O=S(=O)(Nc1nccs1)c1ccc2c(c1)OCCN2c1ccc(F)cc1F` [Example 176, 4-(2,4-Difluorophenyl)-N-(Thiazol-2-Yl)-3,4-Dihydro-2H-Benzo[B][1,4]Oxazine-7-Sulfonamide 2,2,2-Trifluoroacetate]: the half-inhibitory concentration (IC50) is above 10 µM. With `N#Cc1ccc(F)cc1N1CCOc2cc(S(=O)(=O)Nc3nccs3)ccc21` [Example 188, 4-(2-Cyano-5-Fluorophenyl)-N-(Thiazol-2-Yl)-3,4-Dihydro-2H-Benzo[B][1,4]Oxazine-7-Sulfonamide], the concentration for half-maximal inhibition (IC50) amounted to 3.62 µM.

The values above are taken from patent US9346798B2, “Dihydrobenzoxazine and tetrahydroquinoxaline sodium channel inhibitors” (AMGEN INC., priority 2012, dated 2016).
